Data reported in patent US20160265061A1, “COMPOSITION FOR DIAGNOSING OVARIAN CANCER METASTASIS BY USING CPG METHYLATION IN GENE, AND USE THEREOF” (EWHA UNIVERSITY - INDUSTRY COLLABORATION FOUNDATION, priority 2013, published 2016).

Test system: SK-OV-3 cell line
Assay: 5-aza-2′-deoxycytidine treatment of SK-OV-3 cell line, gene expression changes by qRT-PCR
Type: cell-based, Human
[1] = primary cell line SK-OV-3 treated with 5, 10 and 20 μM for 3 days, qRT-PCR normalized to GAPDH

**Q.** With Nc1ncn([C@H]2C[C@H](O)[C@@H](CO)O2)c(=O)n1 [5-aza-2′-deoxycytidine] as the molecule, how does the “changes in expressions of the three genes (ADAM12, NTN4 and PTGS2)” value (cell line SK-OV-3, treatment for 3 days, FIGS. 12 to 14) read?
**A.** The value was “increased”.

**Q.** What about the “increase in ADAM12 gene expression” value (cell line SK-OV-3 treated with 5, 10 and 20 μM for 3 days, qRT-PCR normalized to GAPDH) of the same molecule?
**A.** Its value is “about 2 fold”.

**Q.** What about the “increase in NTN4 gene expression” value [1] of the same molecule?
**A.** The value was “about 2 fold”.

**Q.** And the “increase in PTGS2 gene expression” value [1]?
**A.** Its value is “about 2 fold”.
